The text below walks through data of the NIST ThermoML archive (doi:10.1021/je100508y).

The refractive index is a measure of how strongly the sample bends light. Broadly, the mass density is mass per unit of volume.

Data set [1] is described as follows: refractive index (Na D-line) (dimensionless). The following applies: 298.15 K; 101.33 kPa; Liquid; Standard Abbe refractometry.
For data set [2] the following is noted: 298.15 K; 101.33 kPa; Liquid.

Each structure is given as a SMILES string. ± gives the expanded uncertainty stated by the source.

For the molecule `CCOS(=O)(=O)[O-].CCn1cc[n+](C)c1` [1-ethyl-3-methylimidazolium ethyl sulfate], in data set [1], the refractive index is given as 1.4791 ± 0.0007. The mass density in data set [2] worked out at 1237.23 ± 1.8 kg/m3.
In the case of `c1ccccc1` [benzene], the refractive index in data set [1] is 1.49774 ± 0.00068. For the same molecule, in data set [2], the mass density is reported as 873.57 ± 0.17 kg/m3.
For `C1CCCCC1` [cyclohexane] the same measures were 1.4236 ± 0.00068 and 773.8 ± 0.25 kg/m3.
Take `C1CCCCCCC1` [cyclooctane]: the refractive index in data set [1] turned out to be 1.45598 ± 0.0007. Moreover, in data set [2], the mass density was determined as 831.47 ± 0.73 kg/m3.
For `CC1CCCCC1` [methylcyclohexane] the same measures were 1.42062 ± 0.00068 and 765.02 ± 0.25 kg/m3.
